From patent publication US20120149654A1 (priority 2009, published 2012)

Test system: ScGT1 cells
Settings: for cells remaining viable after treatment: mouse

| Substance | cell viability / cytotoxicity | cells remaining viable after treatment |
| --- | --- | --- |
| fulvic acids [FA] | remain viable | 94% |
| humic acids [HA] | remain viable | 96% |
